Measurements from patent US20200121589A1, “COMPOSITIONS FOR DRUG DELIVERY AND METHODS OF USE THEREOF” (Viramal Limited, priority 2017, published 2020).
Several values for one entry are separate records, joined by “and”; a condition that tells them apart may be missing. Identical values can stand only once.

Tests used:
[1] = Danazol concentrations in serum, peritoneal fluid and peritoneal tissue after oral or vaginal administration to female human subjects; type: in vivo; conditions: for Systemic, Average / Systemic: serum
Experimental: The following example illustrates an administering of either a vaginal or oral formulation of danazol to female human subjects. The vaginal formulation was prepared as described above in Example 2. The oral formulation contained a total dose of 200 mg of danazol present in a capsule body of titanium dioxide and gelatin, and formulated with starch, lactose, talcum and magnesium stearate.
Subjects were administered danazol daily for five days. Six subjects were given a total dose of 600 mg of the oral danazol formulation (3×200 mg) once daily for five days. Seven subjects were given the vaginal formulation containing a total of 100 mg danazol. Samples were then taken from each subject in order to determine the concentration of danazol present systemically, in peritoneal fluid, and in peritoneal tissue. In order to quantify the amount of danazol present systemically, serum samples were collected from each subject and analyzed as described above in Example 3. In order to determine the amount of danazol present in the peritoneal fluid and tissue, endometrial lesions or suspected lesions were harvested, and the amount of danazol present in the samples was quantified as described in Example 3.

[2] = in vivo; cited from earlier work
[3] = Oral - 600 mg Danazol daily for five days, average of six subjects
[4] = Oral - 600 mg Danazol daily for five days, individual subject
[5] = Vaginal - 100 mg Danazol daily for five days, average of seven subjects
[6] = Vaginal - 100 mg Danazol daily for five days, individual subject

C#C[C@]1(O)CC[C@H]2[C@@H]3CCC4=Cc5oncc5C[C@]4(C)[C@H]3CC[C@@]21C [Danazol]
Peritoneal Fluid, Average [1, 3]: 83.4 ng/mL
Peritoneal Fluid [1, 4]: 134 ng/mL and 16.2 ng/mL and 132.8 ng/mL and 19.2 ng/mL and 130.7 ng/mL and 67.7 ng/mL
Systemic, Average [1, 3]: 156.5 ng/mL
Systemic [1, 4]: 209 ng/mL and 141.3 ng/mL and 167 ng/mL and 109.7 ng/mL and 198.3 ng/mL and 113.4 ng/mL
Estimated Peritoneal Tissue, Average [1, 5]: 16.5 ng/mg
Peritoneal Fluid, Average [1, 5]: 1.2 ng/mL
Estimated Peritoneal Tissue [1, 6]: 8.4 ng/mg and 13.2 ng/mg and 13.6 ng/mg and 17.2 ng/mg and 16.4 ng/mg and 29.2 ng/mg and 17.6 ng/mg
Peritoneal Fluid [1, 6]: 1 ng/mL (4×) and 1.2 ng/mL and 1.6 ng/mL and 1.8 ng/mL
Systemic, Average [1, 5]: 4.1 ng/mL
Systemic [1, 6]: 2.1 ng/mL and 3.3 ng/mL and 3.4 ng/mL and 4.3 ng/mL and 4.1 ng/mL and 7.3 ng/mL and 4.4 ng/mL
half-life [2]: 9.7 h
